This note sets out measurements from ChEMBL document CHEMBL4414544, “Dihydropyrimidine-2-thiones as Eg5 inhibitors and L-type calcium channel blockers: potential antitumour dual agents” (Medchemcomm, 2019).

In data set [1] the test system is Aorta. Kind of data set: Vasodilating activity in Wistar rat aortic rings assessed as reduction in phenylephrine-induced contractions. It counts as functional, tissue-based.
The test system of data set [2] is Aorta. In words: Vasodilating activity in Wistar rat aortic rings assessed as reduction in phenylephrine-induced contractions relative to control. The format is functional.
The test system of data set [3] is Aorta. Kind of data set: Vasodilating activity in Wistar rat aortic rings assessed as reduction in KCl-induced contractions. It counts as functional, tissue-based.
In data set [4] the test system is Aorta. Kind of data set: Vasodilating activity in Wistar rat aortic rings assessed as reduction in KCl-induced contractions relative to control. It counts as functional.
For data set [5], the system named is MM1.S. In words: Antiproliferative activity against human MM1S cells incubated for 72 hrs by MTT assay. The format is functional, cell-based.
The subject of data set [6] is A549. In words: Antiproliferative activity against human A549 cells incubated for 72 hrs by MTT assay. It counts as functional, cell-based. The note with it: A549, 72 h. A general note: Tetrazolium assays rely on reduction of a dye to a coloured formazan, in cell work by metabolically active cells.
Data set [7] has as its system HCT-116. In words: Antiproliferative activity against human HCT116 cells incubated for 72 hrs by MTT assay. The format is functional, cell-based. Particulars: HCT-116, 72 h.
Data set [8] relates to MCF7. Kind of data set: Antiproliferative activity against human MCF7 cells incubated for 72 hrs by MTT assay. It counts as functional, cell-based. The note with it: MCF7, 72 h.
Data set [9] concerns the target T1, Kinesin-like protein KIF11 (Homo sapiens) (UniProt P52732).
T1 sequence (whole entry): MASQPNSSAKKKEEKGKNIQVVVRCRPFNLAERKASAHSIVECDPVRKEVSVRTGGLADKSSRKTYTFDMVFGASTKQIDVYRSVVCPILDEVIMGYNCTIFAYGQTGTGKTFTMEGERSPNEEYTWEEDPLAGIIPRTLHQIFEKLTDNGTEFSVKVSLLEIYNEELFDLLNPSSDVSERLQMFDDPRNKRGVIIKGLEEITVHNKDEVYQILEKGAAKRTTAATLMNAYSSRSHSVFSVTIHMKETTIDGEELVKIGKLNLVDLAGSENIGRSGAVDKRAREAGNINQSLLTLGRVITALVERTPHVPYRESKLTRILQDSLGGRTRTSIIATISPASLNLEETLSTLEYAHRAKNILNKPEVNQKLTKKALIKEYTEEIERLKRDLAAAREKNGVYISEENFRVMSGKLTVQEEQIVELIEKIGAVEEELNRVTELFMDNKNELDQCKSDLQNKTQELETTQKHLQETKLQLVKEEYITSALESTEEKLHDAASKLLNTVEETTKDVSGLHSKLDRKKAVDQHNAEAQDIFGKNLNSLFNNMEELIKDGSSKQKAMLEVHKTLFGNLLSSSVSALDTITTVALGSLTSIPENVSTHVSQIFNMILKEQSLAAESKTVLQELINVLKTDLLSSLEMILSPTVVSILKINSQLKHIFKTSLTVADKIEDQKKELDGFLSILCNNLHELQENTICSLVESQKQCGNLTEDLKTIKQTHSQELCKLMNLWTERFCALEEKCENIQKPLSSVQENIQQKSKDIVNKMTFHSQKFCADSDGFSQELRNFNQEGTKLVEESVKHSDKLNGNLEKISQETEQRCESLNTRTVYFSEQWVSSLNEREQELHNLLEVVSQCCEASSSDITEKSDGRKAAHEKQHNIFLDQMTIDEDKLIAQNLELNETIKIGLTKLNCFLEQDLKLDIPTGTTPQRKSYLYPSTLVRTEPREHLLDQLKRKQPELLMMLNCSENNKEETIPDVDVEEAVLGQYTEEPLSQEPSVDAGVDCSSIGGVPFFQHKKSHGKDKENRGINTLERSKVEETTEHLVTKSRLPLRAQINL
Kind of data set: Inhibition of Eg5 in human MCF7 cells assessed as increase in monopolar spindle formation at 100 uM incubated for 24 hrs by DAPI staining based confocal microscopic method. It counts as cell-based.

Data set [10] concerns Aorta. Kind of data set: Vasodilating activity in Wistar rat aortic rings assessed as reduction in phenylephrine-induced contractions in presence of Cacl2 in calcium free Krebs medium incubated for 1 hr relative to control. It counts as functional. Further details: scale not given: the % may be the effect or the level left.
Data set [11] in a line: Cytotoxicity against human MSC assessed as reduction in cell viability incubated for 72 hrs by MTT assay. It counts as ADME.
Data set [12] deals with T2, Voltage-gated L-type calcium channel (Rattus norvegicus, UniProt P22002+Q02485+P27732). In words: Inhibition of L-type calcium channel in Wistar rat aortic rings assessed as reduction in (-)-Bay K8644-induced contractions at 10^-4 M measured after 20 mins. The format is […]. Particulars: 100 µM.
The target of data set [13] is T2, Voltage-gated L-type calcium channel. Kind of data set: Inhibition of L-type calcium channel in Wistar rat aortic rings assessed as reduction in (-)-Bay K8644-induced contractions at 10^-5 M measured after 20 mins. It counts as […]. Particulars: 10 µM.

Each structure is given as a SMILES string. pIC50: −log10 of the molar value. Active and inactive are the calls of the source. The calls are words filed in the database; no cut-off is given here.

Broadly, the pIC50 is the IC50 on a negative log10 scale, so that one unit is a factor of ten. The term Emax denotes the maximal effect, on the per cent scale that the assay sets. Take `CCOC(=O)C1=C(C)NC(=S)NC1c1ccc(O)c(OC)c1` (racemic): the pIC50 in data set [1] is 4.54; in data set [3], 4.04; in data set [5], less than 4.00; in data set [6], less than 4.00; in data set [7], less than 4.00; in data set [8] it was less than 4.00. Also, the figures for the Emax in data set [2] and in [4] were 78% and 78.3%, respectively. In [9], the inhibition result is “Active”.

Take `CCOC(=O)C1=C(C)NC(=S)NC1c1cccnc1` (racemic): the pIC50 in [1] was 4.34; in [3], 4.28; in [5], less than 4.00; in [6], less than 4.00; in data set [7], less than 4.00; in data set [8], less than 4.00. In addition, the Emax in [2] came to 80.9%; in data set [4], 78.4%.

Take `CCOC(=O)C1=C(C)NC(=S)NC1c1ccc(O)c([N+](=O)[O-])c1` (racemic): the pIC50 in data set [1] is 4.59; in [3], 4.42; in data set [5], less than 4.00; in [6], less than 4.00; in data set [7], less than 4.00; in data set [8], less than 4.00. Further, the Emax in data set [2] was 62.4%; in data set [4], 57.1%.

With `CCOC(=O)C1=C(C)NC(=S)NC1c1ccc2c(c1)OCCO2` (racemic), the pIC50 in [1] was 5.25; in data set [3], 4.92; in data set [5] it was less than 4.00; in [6], less than 4.00; in data set [7], less than 4.00; in data set [8] it was less than 4.00. For the same compound, the pIC50 in [11] is less than 4.00. The results for the Emax in data set [2] and in data set [4] were 83.3% and 71.7%, respectively. In [10], the Activity was 41.8%. Further, the inhibition entry in data set [9] is “Active”. Moreover, in [12], the “inhibition (INH)” value is given as “Active”.

For the compound `CCOC(=O)C1=C(C)NC(=S)NC1c1ccc2cn[nH]c2c1` (racemic), the pIC50 is 4.38 in data set [1]; 4.44 in [3]; 4.20 in data set [5]; less than 4.00 in [6]; less than 4.00 in data set [7]; less than 4.00 in data set [8]. Also, the pIC50 in data set [11] was less than 4.00. Moreover, the Emax in data set [2] worked out at 61.2%; in [4] it was 48.5%.

For `CCOC(=O)C1=C(C)NC(=S)NC1c1ccc(OC)c(O)c1` (racemic), the pIC50 in [1] was 4.60; in data set [3] it was 4.43; in [5], less than 4.00; in data set [6], less than 4.00; in [7], less than 4.00; in data set [8], less than 4.00. The results for the Emax in [2] and in data set [4] were 88.4% and 77%, respectively.

On to `CCOC(=O)C1=C(C)N=C(S)NC1c1cccc([N+](=O)[O-])c1` (racemic), for which the pIC50 is 5.49 in [1]; 4.80 in data set [3]; 4.02 in data set [5]; 4.35 in [6]; 4.24 in data set [7]; 4.49 in data set [8]. Besides, the pIC50 in [11] is less than 4.00. The Emax is 84.9% in data set [2] and 95.4% in data set [4]. In data set [10], the Activity stood at 18.1%. In addition, the inhibition result in [9] is “Active”. In addition, the “inhibition (INH)” value in data set [12] and in data set [13] was “Active” in each case.

As to `CCOC(=O)C1=C(C)NC(=S)NC1c1cccc(O)c1` (racemic) [MONASTROL], the pIC50 was 5.16 in data set [1]; 5.92 in data set [3]; 5.06 in data set [5]; less than 4.00 in data set [6]; 5.05 in data set [7]; 4.14 in data set [8]. In addition, the Emax in data set [2] was found to be 95.2%; in [4] it was 89.5%. In addition, the Activity in [10] is reported as 81.8%. The “inhibition (INH)” value in data set [12] is on record as “Active”.

Turning to `COC(=O)C1=C(C)NC(C)=C(C(=O)OC)C1c1ccccc1[N+](=O)[O-]` [NIFEDIPINE], the pIC50 was 7.72 in data set [1]; 8.54 in data set [3]; 4.24 in [5]; less than 4.00 in data set [6]; less than 4.00 in [7]; less than 4.00 in [8]. Further, the pIC50 in [11] is less than 4.00. The maximal effect (Emax) is 75.1% in data set [2] and 98.7% in data set [4].
